Results published in the supplement of paper PMC10627819.

Experiments:
Assay in all cases: Bliss interaction score (quartile over a dose matrix) (fitness difference); higher = more antagonism (negative = synergy)
[1] = tested on: S. aureus Newman
Procedure, shortened: (§1)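 The Bliss score is observed minus expected fitness under the product model, reported as quartiles over technical, biological and donor/recipient replicates. Fitness is the OD595 at entry into stationary phase divided by the plate's robust no-drug mean and capped at 1. Single-drug fitness was inferred from combination data.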

[2] = tested on: S. pneumoniae D39V
Procedure, shortened: as §1

[3] = tested on: B. subtilis 168
Procedure, shortened: as §1

[4] = tested on: S. aureus DSM 20231
Procedure, shortened: as §1
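Note: first quartile when negative (synergy) and third quartile when positive (antagonism).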

| Structure (SMILES) | Bliss interaction score [1] | Bliss interaction score [2] | Bliss interaction score [3] | Bliss interaction score [4] |
| --- | --- | --- | --- | --- |
| CC[C@H]1OC(=O)[C@H](C)[C@@H](O[C@H]2C[C@@](C)(OC)[C@@H](O)[C@H](C)O2)[C@H](C)[C@@H](O[C@@H]2O[C@H](C)C[C@H](N(C)C)[C@H]2O)[C@](C)(OC)C[C@@H](C)C(=O)[C@H](C)[C@@H](O)[C@]1(C)O [Clarithromycin] + CC[C@H]1OC(=O)[C@H](C)C(=O)[C@H](C)[C@@H](O[C@@H]2O[C@H](C)C[C@H](N(C)C)[C@H]2O)[C@](C)(OC)C[C@@H](C)C(=O)[C@H](C)[C@H]2N(CCCCn3cnc(-c4cccnc4)c3)C(=O)O[C@]12C [Telithromycin] | -0.0507 | 0.056 | 0.0309 | -0.0599 |
| CC(=O)OC[C@H]1O[C@@H]([S-])[C@H](OC(C)=O)[C@@H](OC(C)=O)[C@@H]1OC(C)=O.CCP(CC)CC.[Au+] [Auranofin] + Cc1onc(-c2ccccc2)c1C(=O)N[C@@H]1C(=O)N2[C@@H]1SC(C)(C)[C@@H]2C(=O)O [Oxacillin] | -0.0535 | 0.125 | -0.0319 | 0.0406 |
| CC(=O)OC[C@H]1O[C@@H]([S-])[C@H](OC(C)=O)[C@@H](OC(C)=O)[C@@H]1OC(C)=O.CCP(CC)CC.[Au+] [Auranofin] + CCC[C@@H]1C[C@@H](C(=O)N[C@@H]([C@H]2O[C@H](SC)[C@H](O)[C@@H](O)[C@H]2O)[C@H](C)Cl)N(C)C1 [Clindamycin] | 0.0741 | 0.0341 | 0.0424 | 0.0307 |
| CC(=O)O[C@H]1C[C@@]2(C)[C@@H](C[C@@H](O)[C@H]3[C@@]4(C)CC[C@@H](O)[C@@H](C)[C@@H]4CC[C@@]32C)/C1=C(\CCC=C(C)C)C(=O)O [Fusidic acid] + C[C@H]1COc2c(N3CCN(C)CC3)c(F)cc3c(=O)c(C(=O)O)cn1c23 [Levofloxacin] | 0.0554 | 0.119 | 0.034 | 0.0375 |
| CC(=O)OC[C@H]1O[C@@H]([S-])[C@H](OC(C)=O)[C@@H](OC(C)=O)[C@@H]1OC(C)=O.CCP(CC)CC.[Au+] [Auranofin] + CO[C@H]1/C=C/O[C@@]2(C)Oc3c(C)c(O)c4c(O)c(c(/C=N/N5CCN(C)CC5)c(O)c4c3C2=O)NC(=O)/C(C)=C\C=C\[C@H](C)[C@H](O)[C@@H](C)[C@@H](O)[C@@H](C)[C@H](OC(C)=O)[C@@H]1C [Rifampicin] | 0.0123 | 0.0685 | 0.081 | 0.0331 |
| CC(=O)OC[C@H]1O[C@@H]([S-])[C@H](OC(C)=O)[C@@H](OC(C)=O)[C@@H]1OC(C)=O.CCP(CC)CC.[Au+] [Auranofin] + CC1=C(C(=O)O)N2C(=O)[C@@H](NC(=O)[C@H](N)c3ccccc3)[C@H]2SC1 [Cephalexin] | -0.0291 | -0.101 | -0.0587 | -0.0272 |
| N[C@@H]1CONC1=O [CycloserineD] + CO[C@@]12[C@H](COC(N)=O)C3=C(C(=O)C(C)=C(N)C3=O)N1C[C@@H]1N[C@@H]12 [MitomycinC] | -0.0532 | 0.108 | 0.0912 | -0.0633 |
| CC(=O)OC[C@H]1O[C@@H]([S-])[C@H](OC(C)=O)[C@@H](OC(C)=O)[C@@H]1OC(C)=O.CCP(CC)CC.[Au+] [Auranofin] + CO[C@@H]1[C@@H](OC(N)=O)[C@@H](O)[C@H](Oc2ccc3c(O)c(NC(=O)c4ccc(O)c(CC=C(C)C)c4)c(=O)oc3c2C)OC1(C)C [Novobiocin] | 0.105 | 0.0612 | -0.0665 | -0.0224 |
| CCC[C@@H]1C[C@@H](C(=O)N[C@@H]([C@H]2O[C@H](SC)[C@H](O)[C@@H](O)[C@H]2O)[C@H](C)Cl)N(C)C1 [Clindamycin] + Oc1cc(Cl)ccc1Oc1ccc(Cl)cc1Cl [Triclosan] | 0.0225 | -0.101 | 0.065 | -0.0305 |
| CC(=O)OC[C@H]1O[C@@H]([S-])[C@H](OC(C)=O)[C@@H](OC(C)=O)[C@@H]1OC(C)=O.CCP(CC)CC.[Au+] [Auranofin] + O=C(O[C@@H]1Cc2c(O)cc(O)cc2O[C@@H]1c1cc(O)c(O)c(O)c1)c1cc(O)c(O)c(O)c1 [EGCG] | -0.0511 | 0.08 | 0.0518 | -0.0255 |
| N[C@@H]1CONC1=O [CycloserineD] + C[n+]1ccc(-c2cc[n+](C)cc2)cc1 [Paraquat] | 0.0488 | -0.101 | -0.036 | 0.0783 |
| CCC[C@@H]1C[C@@H](C(=O)N[C@@H]([C@H]2O[C@H](SC)[C@H](O)[C@@H](O)[C@H]2O)[C@@H](C)O)N(C)C1 [Lincomycin] + CC1(C)S[C@@H]2[C@H](NC(=O)Cc3ccccc3)C(=O)N2[C@H]1C(=O)O [PenicillinG] | 0.0805 | 0.0998 | 0.0736 | 0.0494 |
| CCC[C@@H]1C[C@@H](C(=O)N[C@@H]([C@H]2O[C@H](SC)[C@H](O)[C@@H](O)[C@H]2O)[C@H](C)Cl)N(C)C1 [Clindamycin] + CC1(C)S[C@@H]2[C@H](NC(=O)Cc3ccccc3)C(=O)N2[C@H]1C(=O)O [PenicillinG] | -0.0587 | 0.0611 | 0.0383 | 0.0609 |
| COc1c(N2C[C@@H]3CCCN[C@@H]3C2)c(F)cc2c(=O)c(C(=O)O)cn(C3CC3)c12 [Moxifloxacin] + CC1(C)S[C@@H]2[C@H](NC(=O)Cc3ccccc3)C(=O)N2[C@H]1C(=O)O [PenicillinG] | -0.0783 | 0.0895 | 0.0377 | 0.0629 |
| N[C@@H]1CONC1=O [CycloserineD] + CN[C@@H]1[C@H](O[C@H]2[C@H](O[C@H]3[C@H](O)[C@@H](O)[C@H](N=C(N)N)[C@@H](O)[C@@H]3N=C(N)N)O[C@@H](C)[C@]2(O)C=O)O[C@@H](CO)[C@H](O)[C@H]1O [Streptomycin] | 0.0653 | -0.108 | -0.0511 | -0.136 |
| CC(=O)OC[C@H]1O[C@@H]([S-])[C@H](OC(C)=O)[C@@H](OC(C)=O)[C@@H]1OC(C)=O.CCP(CC)CC.[Au+] [Auranofin] + CC(=O)O[C@H]1C[C@@]2(C)[C@@H](C[C@@H](O)[C@H]3[C@@]4(C)CC[C@@H](O)[C@@H](C)[C@@H]4CC[C@@]32C)/C1=C(\CCC=C(C)C)C(=O)O [Fusidic acid] | 0.0311 | -0.0761 | 0.0389 | 0.019 |
